In ChEMBL document CHEMBL6092207 (J Med Chem, 2024):

What was measured:
[1] = Binding affinity to SARS-CoV-2 Omicron main protease P132H mutant expressed in Escherichia coli assessed as dissociation constant using fluorogenic substrate incubated for 90 mins by fluorescence based analysis; design: species or system Severe acute respiratory syndrome coronavirus 2
[2] = Binding affinity to SARS-CoV-2 main protease E166 V mutant expressed in Escherichia coli assessed as dissociation constant using fluorogenic substrate incubated for 90 mins by fluorescence based analysis; design: species or system Severe acute respiratory syndrome coronavirus 2

SMILES	Ki [1]	Ki [2]
CC(C)(C)[C@H](NC(=O)C(F)(F)F)C(=O)N1C[C@H]2[C@@H]([C@H]1C(=O)N[C@H](C#N)C[C@@H]1CCNC1=O)C2(C)C	0.001 µM	> 5 µM
CN1C(=O)C[C@H]2CC3(CC3)CN2C(=O)c2cncc(c2)NCCCCCCNC(=O)[C@H]1Cc1ccc(Cl)cc1Cl	< 0.001 µM	0.012 µM
CN1C(=O)C[C@H]2CC3(CC3)CN2C(=O)c2cncc(c2)NCCC/C=C/CNC(=O)[C@H]1Cc1ccc(Cl)cc1Cl	< 0.001 µM	0.011 µM
CNC[C@@H](Cc1ccc(Cl)cc1)N(C)C(=O)C[C@H]1CCCN1C(=O)c1cncc2ccccc12	0.035 µM	1.2 µM
